pIC50: −log10 of the molar value.
Biological target: T1, EZH2 (Homo sapiens, UniProt Q15910)
T1 construct: GRITS37108
Test: EZH2 methyltransferase SPA assay (3H-SAM, Hela nucleosomes)
Type: biochemical
Conditions: read-out: IC50
Description: • 1. […] Prepare 500 μM SAH quench solution in ddH20 with 5-10 drops of concentrated HCl to dissolve. • 5. Prepare 6 mg/ml RNA binding SPA beads (Perkin Elmer) suspended in 0.2 M Citric Acid, pH 2.2
Part C. […] Dispense 5 μL no enzyme control (assay buffer mix) to column 18 of plates. • 2. Dispense 5 μL of enzyme mix to the remaining wells in the plate. Centrifuge plate to mix and incubate at room temperature for 30 minutes. • 3. Dispense 5 μL of substrate mix to all wells to initiate the reactions. Centrifuge plate to mix and incubate at room temperature for 2 hours. • 4. […] Dispense 10 μL of 6 mg/ml RNA binding SPA beads prepared in 0.2 M citric acid, pH 2.2 using the Evolution instrument. Continuously shake the beads while adding to plates to prevent beads from settling. • 6. Seal the plates with Perkin Elmer top seals and allow the beads to equilibrate in the plate for at least 30 minutes at room temperature. • 7. […] Read plates in Microbeta after at least 5 hours incubation. Plates can be read immediately, but signal increases over time.
Reagent addition can be done manually or with automated liquid handler.
*The final DMSO concentration in this assay is 1%.
*The positive control is in column 6; negative control is in column 18.

T1 sequence (Q15910 whole entry): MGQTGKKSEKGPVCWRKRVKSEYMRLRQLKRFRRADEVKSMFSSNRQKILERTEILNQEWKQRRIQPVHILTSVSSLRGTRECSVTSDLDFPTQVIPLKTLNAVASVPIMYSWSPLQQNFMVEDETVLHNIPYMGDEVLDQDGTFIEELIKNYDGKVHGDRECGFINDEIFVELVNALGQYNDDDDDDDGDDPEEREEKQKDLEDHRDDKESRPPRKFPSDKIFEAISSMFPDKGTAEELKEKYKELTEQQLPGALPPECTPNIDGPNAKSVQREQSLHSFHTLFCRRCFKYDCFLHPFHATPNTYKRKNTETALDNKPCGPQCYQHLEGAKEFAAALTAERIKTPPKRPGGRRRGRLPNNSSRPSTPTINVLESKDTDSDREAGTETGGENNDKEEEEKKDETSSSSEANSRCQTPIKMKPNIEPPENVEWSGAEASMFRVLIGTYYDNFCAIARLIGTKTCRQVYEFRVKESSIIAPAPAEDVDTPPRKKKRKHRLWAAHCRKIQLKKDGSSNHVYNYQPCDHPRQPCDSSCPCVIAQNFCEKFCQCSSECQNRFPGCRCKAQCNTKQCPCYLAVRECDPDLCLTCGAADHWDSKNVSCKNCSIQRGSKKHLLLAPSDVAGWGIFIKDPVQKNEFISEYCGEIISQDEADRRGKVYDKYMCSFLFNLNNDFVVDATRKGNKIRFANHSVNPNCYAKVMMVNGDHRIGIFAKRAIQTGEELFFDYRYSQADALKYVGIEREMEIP
T1 sequence (O75530 whole entry partner): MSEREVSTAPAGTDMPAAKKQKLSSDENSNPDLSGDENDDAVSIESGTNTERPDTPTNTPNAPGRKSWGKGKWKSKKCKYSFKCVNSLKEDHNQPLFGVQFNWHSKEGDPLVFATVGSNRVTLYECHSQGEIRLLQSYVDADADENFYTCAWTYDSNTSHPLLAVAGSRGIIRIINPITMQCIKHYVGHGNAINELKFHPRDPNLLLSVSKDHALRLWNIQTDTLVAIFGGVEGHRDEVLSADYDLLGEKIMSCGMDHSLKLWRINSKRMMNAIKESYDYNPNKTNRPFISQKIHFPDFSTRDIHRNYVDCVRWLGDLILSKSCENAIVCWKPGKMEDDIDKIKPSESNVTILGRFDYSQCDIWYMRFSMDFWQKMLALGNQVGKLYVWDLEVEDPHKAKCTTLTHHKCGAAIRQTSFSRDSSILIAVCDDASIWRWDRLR
T1 sequence (Q15022 whole entry partner): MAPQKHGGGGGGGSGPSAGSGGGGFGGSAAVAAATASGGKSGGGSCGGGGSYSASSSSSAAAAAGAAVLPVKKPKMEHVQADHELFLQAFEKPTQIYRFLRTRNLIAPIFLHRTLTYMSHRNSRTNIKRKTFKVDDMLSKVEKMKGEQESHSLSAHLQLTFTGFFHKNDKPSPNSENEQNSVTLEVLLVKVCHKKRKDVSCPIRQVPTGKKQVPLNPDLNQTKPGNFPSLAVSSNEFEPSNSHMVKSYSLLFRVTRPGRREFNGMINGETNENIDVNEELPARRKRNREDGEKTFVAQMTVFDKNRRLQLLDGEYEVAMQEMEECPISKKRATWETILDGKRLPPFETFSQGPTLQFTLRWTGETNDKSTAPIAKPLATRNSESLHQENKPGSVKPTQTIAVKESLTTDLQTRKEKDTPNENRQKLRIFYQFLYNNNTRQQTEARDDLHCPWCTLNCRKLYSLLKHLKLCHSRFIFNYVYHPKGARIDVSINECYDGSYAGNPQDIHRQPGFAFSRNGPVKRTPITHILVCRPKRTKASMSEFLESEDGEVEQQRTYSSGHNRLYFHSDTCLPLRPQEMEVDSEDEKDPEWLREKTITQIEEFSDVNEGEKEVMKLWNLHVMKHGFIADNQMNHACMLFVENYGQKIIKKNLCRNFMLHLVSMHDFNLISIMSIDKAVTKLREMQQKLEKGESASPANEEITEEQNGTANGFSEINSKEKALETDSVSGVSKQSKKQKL

| pIC50 | SMILES |
| --- | --- |
| 7.40 | Cc1cc(C2CC2)c(CNC(=O)c2cc(-c3ccncc3)nc3c2cnn3C(C)C)c(=O)[nH]1 [Ex 18, N-[(4-Cyclopropyl-6-methyl-2-oxo-1,2-dihydro-3-pyridinyl)methyl]-1-(1-methylethyl)-6-(4-pyridinyl)-1H-pyrazolo[3,4-b]pyridine-4-carboxamide] |
| 6.68 | Cc1cc(C)c(CNC(=O)c2cc(C3CC3)nc3c2c(C)nn3C(C)C2CC2)c(=O)[nH]1 (stereo not drawn) [Ex 109, 6-Cyclopropyl-1-(1-cyclopropylethyl)-N-[(4,6-dimethyl-2-oxo-1,2-dihydro-3-pyridinyl)methyl]-3-methyl-1H-pyrazolo[3,4-b]pyridine-4-carboxamide] |
| 6.85 | Cc1cc(C)c(CNC(=O)c2cc(-c3ccc4c(c3)CC(=O)N4)nc3c2cnn3C(C)C)c(=O)[nH]1 [Ex 79, N-[(4,6-Dimethyl-2-oxo-1,2-dihydro-3-pyridinyl)methyl]-1-(1-methylethyl)-6-(2-oxo-2,3-dihydro-1H-indol-5-yl)-1H-pyrazolo[3,4-b]pyridine-4-carboxamide] |
| 6.72 | Cc1cc(C)c(CNC(=O)c2cc(-c3ccncc3)nc3c2c(C)nn3C(C)C)c(=O)[nH]1 [Ex 117, N-[(4,6-Dimethyl-2-oxo-1,2-dihydro-3-pyridinyl)methyl]-3-methyl-1-(1-methylethyl)-6-(4-pyridinyl)-1H-pyrazolo[3,4-b]pyridine-4-carboxamide] |
| 5.88 | CCCc1cc(C)c(CNC(=O)c2cc(-c3ccncc3)nc3c2cnn3C(C)C)c(=O)[nH]1 [Ex 9, 1-(1-Methylethyl)-N-[(4-methyl-2-oxo-6-propyl-1,2-dihydro-3-pyridinyl)methyl]-6-(4-pyridinyl)-1H-pyrazolo[3,4-b]pyridine-4-carboxamide] |
| 6.15 | C=CCNc1cc(C(=O)NCc2c(C)cc(C)[nH]c2=O)c2cnn(C(C)C)c2n1 [Ex 5, N-[(4,6-Dimethyl-2-oxo-1,2-dihydro-3-pyridinyl)methyl]-1-(1-methylethyl)-6-(2-propen-1-ylamino)-1H-pyrazolo[3,4-b]pyridine-4-carboxamide] |
| 6.27 | Cc1cc(C)c(CNC(=O)c2cc(-c3cccnc3)nc3c2cnn3C(C)C)c(=O)[nH]1 [Ex 73, N-[(4,6-Dimethyl-2-oxo-1,2-dihydro-3-pyridinyl)methyl]-1-(1-methylethyl)-6-(3-pyridinyl)-1H-pyrazolo[3,4-b]pyridine-4-carboxamide] |
| 6.41 | Cc1cc(C)c(CNC(=O)c2cc(-c3ccccc3)nc3c2cnn3C(C)C)c(=O)[nH]1 [Ex 38, N-[(4,6-Dimethyl-2-oxo-1,2-dihydro-3-pyridinyl)methyl]-1-(1-methylethyl)-6-phenyl-1H-pyrazolo[3,4-b]pyridine-4-carboxamide] |
| 6.70 | Cc1cc(C)c(CNC(=O)c2cc(-c3ccc(N)nc3)nc3c2cnn3C(C)C)c(=O)[nH]1 [Ex 60, 6-(6-Amino-3-pyridinyl)-N-[(4,6-dimethyl-2-oxo-1,2-dihydro-3-pyridinyl)methyl]-1-(1-methylethyl)-1H-pyrazolo[3,4-b]pyridine-4-carboxamide] |
| 6.81 | COc1cc(-c2cc(C(=O)NCc3c(C)cc(C)[nH]c3=O)c3cnn(C(C)C)c3n2)ccn1 [Ex 59, N-[(4,6-Dimethyl-2-oxo-1,2-dihydro-3-pyridinyl)methyl]-1-(1-methylethyl)-6-[2-(methyloxy)-4-pyridinyl]-1H-pyrazolo[3,4-b]pyridine-4-carboxamide] |
| 5.96 | Cc1cc(C)c(CNC(=O)c2cc(C(C)C)nc3c2cnn3C(C)C)c(=O)[nH]1 [Ex 37, N-[(4,6-Dimethyl-2-oxo-1,2-dihydro-3-pyridinyl)methyl]-1,6-bis(1-methylethyl)-1H-pyrazolo[3,4-b]pyridine-4-carboxamide] |
| 6.94 | Cc1cc(C)c(CNC(=O)c2cc(Oc3ccncc3)nc3c2cnn3C(C)C)c(=O)[nH]1 [Ex 4, N-[(4,6-Dimethyl-2-oxo-1,2-dihydro-3-pyridinyl)methyl]-1-(1-methylethyl)-6-(4-pyridinyloxy)-1H-pyrazolo[3,4-b]pyridine-4-carboxamide] |
| 6.48 | Cc1cc(C)c(CNC(=O)c2cc(-c3ccc(S(C)(=O)=O)cc3)nc3c2cnn3C(C)C)c(=O)[nH]1 [Ex 119, N-[(4,6-Dimethyl-2-oxo-1,2-dihydro-3-pyridinyl)methyl]-1-(1-methylethyl)-6-[4-(methylsulfonyl)phenyl]-1H-pyrazolo[3,4-b]pyridine-4-carboxamide] |
| 6.32 | Cc1cc(C)c(CNC(=O)c2cc(Cl)nc3c2cnn3C(C)C)c(=O)[nH]1 [Ex 1, 6-Chloro-N-[(4,6-dimethyl-2-oxo-1,2-dihydro-3-pyridinyl)methyl]-1-(1-methylethyl)-1H-pyrazolo[3,4-b]pyridine-4-carboxamide] |
| 5.66 | CCCc1cc(C(=O)NCc2c(C)cc(C)[nH]c2=O)c2cnn(C(C)C)c2n1 [Ex 125, N-[(4,6-Dimethyl-2-oxo-1,2-dihydro-3-pyridinyl)methyl]-1-(1-methylethyl)-6-propyl-1H-pyrazolo[3,4-b]pyridine-4-carboxamide] |
| 6.40 | Cc1cc(C)c(CNC(=O)c2cc(-c3cn[nH]c3)nc3c2cnn3C(C)C)c(=O)[nH]1 [Ex 71, N-[(4,6-Dimethyl-2-oxo-1,2-dihydro-3-pyridinyl)methyl]-1-(1-methylethyl)-6-(1H-pyrazol-4-yl)-1H-pyrazolo[3,4-b]pyridine-4-carboxamide] |
| 7.06 | CC(=O)Nc1cccc(-c2cc(C(=O)NCc3c(C)cc(C)[nH]c3=O)c3cnn(C(C)C)c3n2)c1 [Ex 47, 6-[3-(Acetylamino)phenyl]-N-[(4,6-dimethyl-2-oxo-1,2-dihydro-3-pyridinyl)methyl]-1-(1-methylethyl)-1H-pyrazolo[3,4-b]pyridine-4-carboxamide] |
| 6.78 | Cc1cc(C(C)C)c(CNC(=O)c2cc(C3CC3)nc3c2cnn3C(C)C)c(=O)[nH]1 [Ex 8, 6-Cyclopropyl-1-(1-methylethyl)-N-{[6-methyl-4-(1-methylethyl)-2-oxo-1,2-dihydro-3-pyridinyl]methyl}-1H-pyrazolo[3,4-b]pyridine-4-carboxamide] |

— patent US8637509B2, “Azaindazoles” (GlaxoSmithKline LLC, priority 2010, dated 2014)
